The values that follow are results of earlier work, collected in patent publication US9023417B2, “Use of a polyamine-poor composition for the production of a medical human food” (Univeriste de Rennes 1, priority 2003, dated 2015).

Molecules are shown by their SMILES.

The test system of the data set is Escherischia coli.

On to `NCCC[C@](N)(C(=O)O)C(F)F` [a-DFMO, 2-difluoromethylornithine], for which the “inhibition of the synthesis of polyamines in Escherischia coli” value is reported as “not the case”.
Consider `C[C@](N)(CCCN)C(=O)O` [Alpha-methylornithine, alpha-methylornithine], for which the “inhibition of the synthesis of polyamines in Escherischia coli” value is recorded as “inhibiting the synthesis of polyamines”.
